According to US9738656B2, “Pyranodipyridine compound” (Eisai R&D Management Co., Ltd., priority 2015, dated 2017):
Like-named read-outs stand apart in the source and are kept apart here.

Legend:
male ddY mice [1] = test: Rotarod performance test-1; format: in vivo; conditions: oral, 25 minutes after administration, dose at which time of fall is reduced to 50% of medium control
Description: (§1) With regard to the AMPA receptor inhibitory action of the compounds, AMPA-induced intraneuronal calcium entry-suppressing action was examined using a primary culture system of embryonic rat cerebral cortex neurons. […] AMPA inhibitor-induced central nervous system depressant action such as loss of coordination was evaluated using a rotarod performance test.
Rotarod Performance Test-1
(§2) A rotarod (MK-660C from Muromachi Kikai Co., Ltd.) was used for the measurement. The rod (bar) was controlled to be gradually accelerated from its stationary state to a speed of 40 rotations/minute after 180 seconds. As the animals, 5 or 6-week-old male ddY mice (Japan SLC, Inc.) were used. On the day on which the test was performed, the mice were trained under the above-described measurement conditions, and mice that were able to ride on the rod for 1 minute or longer with good reproducibility were selected and subjected to the test.
Each of the compounds was dissolved in a medium (a solution prepared by adding DMSO to a 0.5% methylcellulose solution to a final concentration of 10%. As required, 0.5 to 5% of 1 mol/L hydrochloric acid and 5% Cremophor™ were added), and then orally administered to the mice in optimum four doses between 0.5 to 10 mg/kg. As the control, only the medium was orally administered. After a lapse of 25 minutes from the oral administration of each compound, the mice were subjected to the rotarod performance test. Five to twenty-five mice were used for each compound group.

AMPA receptor = test: AMPA-induced intraneuronal calcium entry-suppressing action (primary culture of embryonic rat cerebral cortex neurons, Fura 2-AM); format: cell-based; conditions: AMPA stimulation, intracellular calcium increase, read-out: IC50 for AMPA inhibition
From the text: The present inventors conducted the following tests, in order to confirm the effects of the compounds of the present invention. With regard to the AMPA receptor inhibitory action of the compounds, AMPA-induced intraneuronal calcium entry-suppressing action was examined using a primary culture system of embryonic rat cerebral cortex neurons. With regard to the anticonvulsant action of the compounds, 6 Hz (44 mA) stimulation-induced convulsions known as a treatment-resistant convulsion model were used. AMPA inhibitor-induced central nervous system depressant action such as loss of coordination was evaluated using a rotarod performance test.
AMPA-Induced Intraneuronal Calcium Entry-Suppressing Action
<Culture conditions> Whole fetuses were removed from the uteri of Wistar rats at embryonic day 18 (Charles River Japan) anesthetized with isoflurane. Whole brains were removed from the whole fetuses, and the cerebral cortex was separated in Leibovitz's L-15 medium or Hanks balanced salt solution containing 20% fetal bovine serum. The resulting material was treated with trypsin/DNase solution at 37° C. for 45 to 60 minutes. After the serum was added to stop the trypsin reaction, the resulting material was centrifuged at 1200 to 1500 rpm for 3 to 5 minutes. After the supernatant was removed, Neurobasal medium (containing 2% B-27 supplement and the like; hereinafter “Neurobasal medium”) was added, and the cells were uniformly dispersed by gently pipetting. The cell suspension was slightly stirred, and then filtered through a nylon mesh filter. Viable cells were counted using a hemocytometer, and diluted with Neurobasal medium to 8 to 10×10^5 cells/mL. The cells were seeded into 96 well plates at 100 μL per well and cultured in a CO2 incubator (5% CO2, 37° C.). The medium was replaced after 24 hours, and neurons cultured for 7 to 21 days were used.
On the day of the assay, the medium was removed and replaced with a calcium measurement solution containing 5 to 10 μmol/L of Fura 2-AM (140 mmol/L sodium chloride, 5 mmol/L potassium chloride, 2 mmol/L magnesium chloride, 3 mmol/L calcium chloride, 24 mmol/L D(+)-glucose, 10 mmol/L HEPES, 1 μmol/L MK-801, pH 7.4), and the cells were treated in a CO2 incubator (5% CO2, 37° C.) for 1 to 2 hours. The calcium measurement solution containing the Fura-2 AM solution was subsequently removed, and the neurons in each well were washed twice with the calcium measurement solution for each well, and then 50 μL of the calcium measurement solution was added to each well. Subsequently, 50 μL of a test compound or medium prepared at a concentration 3-fold higher than the final concentration was added, and the cells were pre-treated for about 15 minutes. The plates were subsequently placed on the Fluorescence Drug Screening System 6000 (Hamamatsu Photonics K.K.). The cells were stimulated by adding to each well 50 μL of an AMPA stimulating solution prepared to 3.3 μmol/L with the calcium measurement solution. Changes in calcium concentration were measured as the changes in fluorescence intensity at excitation wavelengths of 340 nm and 380 nm (measurement wavelength: 540 nm). The rate of change of the intracellular calcium concentration was calculated according to the following equation: Rate of increase of the intracellular calcium concentration (% control)=(Tpost−Tpre)/(Cpost−Cpre)×100
wherein Tpost: the proportion of fluorescence of sample wells after stimulation; Tpro: the proportion of fluorescence of sample wells before stimulation; Cpost: the proportion of fluorescence of control wells after stimulation; and Cpre: the proportion of fluorescence of control wells before stimulation.
The IC50 value of the test compound for AMPA inhibition was determined from the rates of increase of the intracellular calcium concentration at various concentrations.

male ddY mice [2] = test: Rotarod performance test-2; format: in vivo; conditions: for Time of Fall: mice, oral at the ED50 dose of the 6 Hz model, 25 minutes after administration; for Ratio Relative to the Control Compound: time of fall relative to control compound
Description: Rotarod Performance Test-2
as §2
As the control, only the medium was orally administered. After a lapse of 25 minutes from the oral administration of each compound, the mice were subjected to the rotarod performance test. Five or six mice were used for each compound group. For each compound, the time until the mice fell from the rotarod was measured.

male ddY mice [3] = test: Murine 6 Hz convulsion models (6 Hz, 44 mA corneal stimulation); format: in vivo; conditions: for ED50: Mus musculus, 25 min; for Therapeutic Index: TD50/ED50 (rotarod test-1 / 6 Hz convulsion model)
Description: as §1
Immediately after the rotarod performance test-1 was completed, the cornea was stimulated by passing an electrical current (6 Hz, 44 mA, 0.2-millisecond pulse, for 3 seconds) from a copper electrode moistened with physiological saline, and the presence or absence of the development of a seizure was observed. The seizure was determined by the development of akinesia, jaw and forelimb clonus, whisker tremors, and Straub tail.
Further, for the purpose of evaluating the safety margin of each of the compounds of the present invention, the therapeutic index (TD50/ED50) was calculated by comparing the seizure inhibitory action (ED50) in the 6 Hz convulsion models and the neurotoxic action (TD50) in the rotarod performance test-1.

[4] = mice, 6 Hz 44 mA stimulation-induced seizure, oral, after rotarod test-1 (25 minutes after administration), read-out: ED50

## N#Cc1c(F)cccc1-c1cc2c(n(-c3cccnc3)c1=O)COc1cccc(F)c1-2 [Example 16, 2-fluoro-6-(10-fluoro-3-oxo-4-(pyridin-3-yl)-4,5-dihydro-3H-chromeno[3,4-b]pyridin-2-yl)benzonitrile]
Male ddY mice [1]
  TD50: 1.73 mg/kg, p.o.
AMPA receptor
  IC50: < 8 nM
Male ddY mice [2]; Table 4
  Time of Fall: 92.8 s
  Ratio Relative to the Control Compound: 6.5
Male ddY mice [3]; po
  ED50: 1.05 mg/kg
Male ddY mice [3]; mice
  Therapeutic Index: 1.65

## COc1ncc(-n2c3c(cc(-c4cccc(F)c4C#N)c2=O)-c2ncccc2OC3)cn1 [Example 5, 2-fluoro-6-(7-(2-methoxypyrimidin-5-yl)-8-oxo-7,8-dihydro-6H-pyrano[3,2-b:5,4-b′]dipyridin-9-yl)benzonitrile]
Male ddY mice [1]
  TD50: 6.53 mg/kg, p.o.
AMPA receptor
  IC50: 31.8 nM
Male ddY mice [2]; Table 4
  Time of Fall: 108.7 s
  Ratio Relative to the Control Compound: 7.6
Male ddY mice [3]; [4]
  ED50: 3.23 mg/kg
Male ddY mice [3]; mice
  Therapeutic Index: 2.02

## N#Cc1ccccc1-n1nc2c(c(-c3cccnc3)c1=O)COc1ccccc1-2 [Control Compound, 2-(3-oxo-4-(pyridin-3-yl)-3,5-dihydro-2H-chromeno[4,3-c]pyridazin-2-yl)benzonitrile, reference compound]
Male ddY mice [1]
  TD50: 2.73 mg/kg, p.o.
AMPA receptor
  IC50: 20 nM
Male ddY mice [2]; Table 3
  Time of Fall: 12.2 s
  Ratio Relative to the Control Compound: 1.0
Male ddY mice [2]; Table 4
  Time of Fall: 14.3 s
  Ratio Relative to the Control Compound: 1.0
Male ddY mice [3]; po
  ED50: 3.96 mg/kg
Male ddY mice [3]; mice
  Therapeutic Index: 0.69

## N#Cc1ccccc1-c1cc2c(n(-c3ccc(F)cc3)c1=O)COc1cccnc1-2 [Example 10, 2-(7-(4-fluorophenyl)-8-oxo-7,8-dihydro-6H-pyrano[3,2-b:5,4-b′]dipyridin-9-yl)benzonitrile]
Male ddY mice [1]
  TD50: 3.37 mg/kg, p.o.
AMPA receptor
  IC50: 18.8 nM
Male ddY mice [2]; Table 3
  Time of Fall: 84.2 s
  Ratio Relative to the Control Compound: 6.9
Male ddY mice [3]; po
  ED50: 2.08 mg/kg
Male ddY mice [3]; mice
  Therapeutic Index: 1.62

## O=c1c(-c2c(F)cccc2F)cc2c(n1-c1cccnc1)COc1cccnc1-2 [Referential Example 1, 9-(2,6-difluorophenyl)-7-(pyridin-3-yl)-6H-pyrano[3,2-b:5,4-b′]dipyridin-8(7H)-one]
Male ddY mice [1]
  TD50: 5.16 mg/kg, p.o.
AMPA receptor
  IC50: 44.1 nM
Male ddY mice [2]; Table 3
  Time of Fall: 110.7 s
  Ratio Relative to the Control Compound: 9.1
Male ddY mice [3]; [4]
  ED50: 1.41 mg/kg
Male ddY mice [3]; mice
  Therapeutic Index: 3.66

## COc1cncc(-n2c3c(cc(-c4cccc(F)c4C#N)c2=O)-c2ncccc2OC3)c1 [Example 2, 2-fluoro-6-(7-(5-methoxypyridin-3-yl)-8-oxo-7,8-dihydro-6H-pyrano[3,2-b:5,4-b′]dipyridin-9-yl)benzonitrile]
Male ddY mice [1]
  TD50: 4.50 mg/kg, p.o.
AMPA receptor
  IC50: 16 nM
Male ddY mice [2]; Table 3
  Time of Fall: 148.0 s
  Ratio Relative to the Control Compound: 12.1
Male ddY mice [3]; po
  ED50: 1.91 mg/kg
Male ddY mice [3]; mice
  Therapeutic Index: 2.36

## N#Cc1ncccc1-c1cc2c(n(-c3ccsc3)c1=O)COc1cccnc1-2 [Example 7, 3-(8-oxo-7-(thiophen-3-yl)-7,8-dihydro-6H-pyrano[3,2-b:5,4-b′]dipyridin-9-yl)picolinonitrile]
Male ddY mice [1]
  TD50: 1.70 mg/kg, p.o.
AMPA receptor
  IC50: 15.5 nM
Male ddY mice [2]; Table 3
  Time of Fall: 71.7 s
  Ratio Relative to the Control Compound: 5.9
Male ddY mice [3]; po
  ED50: 0.97 mg/kg
Male ddY mice [3]; mice
  Therapeutic Index: 1.75
